In US9877973B2, “Intraocular drug delivery device and associated methods” (University of Utah Research Foundation, priority 2008, dated 2018):
Read-outs that look alike come from different tables or passages of the source.

What was measured:
[1] = AVASTIN-loaded intraocular device, ocular tissue concentration by ELISA; assay type: in vivo, New Zealand white rabbits; conditions: 1 week post implantation of AVASTIN-loaded intraocular device
From the text: Three intraocular devices were implanted into eyes of New Zealand white rabbits under general anesthesia after lens extraction (phacoemulsification technique). Two of the devices were loaded with AVASTIN® and one was loaded with the contrast agent Galbumin as a control. Proper intraocular device position was verified by MRI as well as clinical examination.
The rabbits were sacrificed and the eyes are removed and assayed after 1 week post implantation. AVASTIN® was detected by ELISA in the retina and vitreous at concentrations of 24-48 mcg/mL, and was not present in the control rabbit eye.

[2] = rabbit, in vivo
[3] = rabbit, in vivo; remark: listed apart in the source
Experimental: The selected BDI-1 implants (from in-vitro release studies, FIG. 7) were sterilized, implanted in the capsular bag of rabbit's eyes. Two implants with different composition and dose were tested in-vivo in NZW rabbits to establish pharmacokinetics. Two rabbits were sacrificed at 2, 6, 10, 15 days and various tissue samples (aqueous humor, vitreous humor, IOL, iris/ciliary body and retina/choroid) were collected and samples were analyzed by a validated LC/MS/MS method.
A total of 8 animals (16 eyes) received the implant containing 120 μg of DXM.

Row | Molecule | concentration in the retina and vitreous by ELISA [1] [ng/mL] | direction of dexamethasone flow from the endocapsular space [2] | direction of dexamethasone flow from the endocapsular space [3]
1 | bevacizumab [AVASTIN®] | 24000 to 48000 |  | 
2 | C[C@@H]1C[C@H]2[C@@H]3CCC4=CC(=O)C=C[C@]4(C)[C@@]3(F)[C@@H](O)C[C@]2(C)[C@@]1(O)C(=O)CO [dexamethasone] |  | bidirectional from the endocapsular space into both the anterior and posterior chambers | bidirectional from the endocapsular space into both the anterior and posterior chambers
